# System: T lymphocytes in peripheral blood mononuclear cells
# Test: IFN-gamma ELISPOT of human T cells with IGF1R peptides
# Format: cell-based
# Details: for Immunogenicity Volunteer: responders / volunteer donors tested; for Immunogenicity Cancer: responders / cancer patients tested
# Description: A scoring system based on internet available epitope prediction algorithms was developed to predict the peptides derived from IGF1R that have optimal binding affinity and promiscuity against multiple MHC class II molecules. […] After stimulating human T cells with the peptides, IFN-gamma secretion was determined via ELISPOT analysis. Five of the most immunogenic peptides were selected for in vivo evaluation in neu-transgenic mice to assess the potential of clinical efficacy.
Sequence,Immunogenicity Volunteer,Immunogenicity Cancer
DYRSYRFPKLTVITE [p 69-83],1/5,
VIEGYLHILLISKAE [p 54-68],,2/10
SHALVSLSFLKNLRL [p 393-407],2/5,2/10
TQYAVYVKAVTLTMV [p 575-589],1/5,1/10
LIIALPVAVLLIVGG [p 936-950],1/5,4/10
GMAYLNANKFVHRDL [p 1122-1136],,1/10
GVLVLRASFDERQPY [p 1332-1346],,2/10
DERQPYAHMNGGRKN [p 1341-1355],,1/10
IDIRNDYQQLKRLEN [p 37-5],,1/10
YSFYVLDNQNLQQLW [p 418-432],,1/10
SKMIQMAGEIADGMA [p 1110-1124],,1/10
LVIMLYVFHRKRNNS [p 951-965],,3/10
WSFGVVLWEIATLAE [p 1196-1210],1/5,2/10
IRGWKLFYNYALVIF [p 106-120],2/5,3/10
ASNFVFARTMPAEGA [p 817-831],,1/10

# Reference: US9060961B2, “Molecules and methods for treatment and detection of cancer” (UNIVERSITY OF WASHINGTON, priority 2006, dated 2015)
